Results: patent publication US20140248361A1, “HERBAL EXTRACT COMPOSITION AND A PROCESS THEREOF” (PRASAN SOLUTIONS (INDIA) PVT LTD, priority 2012, published 2014)

Columns and labels:
[1] = Peroxide value of palm oil on storage
Description: (§2) The shelf life of oil is studied by carrying out chemical analysis, which include studying peroxide value (represents extent of primary oxidation), Para-anisidine value (represents extent of secondary oxidation) and totox value (reflects total oxidation of oil). These parameters are determined for 1 kg of untreated oil and treated oil at every 15 days interval for samples stored at ambient temperature and at every 7 days interval for samples stored at 50° C. The treated oil being, the oil upon addition of 200 ppm of TBHQ (sample-A), 200 ppm of BHA (sample-B), 200 ppm and 500 ppm of pulverized green tea extract with 90% polyphenol (sample-C), 200 ppm and 500 ppm of rosemary extract (sample-D), 200 ppm and 500 ppm of green tea extract after cryogenic grinding (sample-E), 200 ppm and 500 ppm of crude green tea extract (sample-F) and PRESOL at 200 ppm and 500 ppm. The untreated oil is the control sample without any antioxidant.
(§3) The threshold limit for per oxide value under which oil can be used for safe consumption is 10 meq of O2/Kg oil. Similarly, the threshold limit of para-anisidine value and Totox value is 10 and 30, respectively.

[2] = Synergism of TBHQ and PRESOL combination (Rancimat) in palm oil
Description: Synergism of TBHQ and PRESOL is analyzed in palm oil. If the frying industry is considered, synthetic antioxidant TBHQ is being added to the oils. […] In order to overcome this limitation, TBHQ is fortified with PRESOL and added to vegetable oils in order to increase the frying cycles which ultimately increases the shelf life of end products. […] The below table 25 illustrates all the combination of fortification of TBHQ and PRESOL used in palm oil to illustrate maximum activity of fortified combination. Synergism is calculated based on the below equation: [formula]

[3] = Estimation of shelf life of sunflower oil (Rancimat temperature extrapolation); settings: 200 ppm
Description: (§4) This is an aid for estimating the shelf life of oils and fats. The extrapolation makes use of the relationship between the measured induction time and the temperature given by van't Hoff's law. Several measurements are made at different temperatures and then extrapolated to the storage temperature. The values so obtained allow estimation of the storage stability of the oil or fat containing PRESOL.
(§5) The shelf life is calculated using Rancimat shelf life calculator.

[4] = Frying cycle analysis of palm oil (total polar compounds)
Description: (§1) Palm oil and sunflower oil with antioxidants added to it are obtained from a local refinery. Frying studies are carried out with control oil and by adding TBHQ (Sample A), BHA (Sample B), GT Pulverized (Sample C), ROS (Sample D), GT Cryo grinded (Sample E), GT Crude Extract (Sample F) and PRESOL, respectively to the oils. Experiments are carried out a concentration of 200 ppm and 500 ppm. Fresh potatoes of less reduced sugar content variety are used throughout the experiment which is purchased form a local supermarket. Oil samples are withdrawn from the fryer at the end of every day and stored at −4° C. until it is tested for quality parameters viz, total polar compounds. Polar compounds present in oil and fats are measured by column chromatography using standard method, ES ISO 8420:2012.

Shelf life of canola oil = settings: 200 ppm
Description: D. Determination of Shelf Life of Canola Oil in the Presence of PRESOL • Shelf life of canola oil is analyzed upon adding 200 ppm of TBHQ (sample-A), BHA (sample-B), green tea extract with 90% polyphenol (sample-C), rosemary extract (sample-D), green tea extract after cryogenic grinding (sample-E), and PRESOL, respectively to canola oil.

[5] = Estimation of shelf life of palm oil (Rancimat temperature extrapolation); settings: 200 ppm
Description: as §4, §5

[6] = Effect of particle size on antioxidant activity (Rancimat induction time) in sunflower oil; settings: 200 ppm in sunflower oil; Rancimat 100° C.
Description: (§6) Effect of particle size analysis on antioxidant activity is analysed with the help of Rancimat (Metrohm 743) which gives oxidative stability index based on the induction time (h). Rancimat analysis is carried out at two different temperature in order to set relationship between induction time and temperature of the studies.
(§7) In this, we have analyzed the particle size of samples with the help of Particle Size Analyzer (Microtrac, S3500) and its antioxidant activity with the help of Rancimat (Metrohm 743).

[7] = Totox value of palm oil on storage; settings: ambient temperature
Description: as §2, §3

[8] = Oil stability index (Rancimat) of sunflower oil; settings: 200 ppm
Description: (§8) As used herein, ‘Oil Stability Index (OSI)’ is an American Oil Chemists Society (AOCS) approved method that determines the relative resistance of fat and oil samples to oxidation, which is defined by the following equation—
(§9) The oil stability index is determined using the Metrohm's Rancimat (Metrohm 743 Rancimat).
4.0 g of sunflower oil is weighed into the reaction vessel. The reaction vessel filled with oil is placed in a heating block. The temperature of the block is maintained at 80° C., 100° C. and 120° C., respectively. The oil is heated at the said temperatures, followed by passing air at a flow rate of 20 L/h. Flowing of air through the oil produces peroxides during primary oxidation and organic acids having low molecular weight, aldehydes and ketones with typical rancid odor during the secondary oxidation phase. These compounds are conveyed by the air flow into measurement vessel containing distilled water where conductivity is being checked continuously by sensor.

[9] = Frying cycle analysis of sunflower oil (total polar compounds)
Description: as §1

[10] = Oil stability index (Rancimat) of palm oil; settings: 200 ppm
Description: as §8, §9
4.0 g of palm oil is weighed into the reaction vessel. The reaction vessel filled with oil is placed in a heating block. The temperature of the block is maintained at 100° C., 120° C. and 140° C., respectively. The oil is heated at the said temperatures, followed by passing air at a flow rate of 20 L/h. Flowing of air through the oil produces peroxides during primary oxidation and organic acids having low molecular weight, aldehydes and ketones with typical rancid odor during the secondary oxidation phase. These compounds are conveyed by the air flow into measurement vessel containing distilled water where conductivity is being checked continuously by sensor.

[11] = Para-anisidine value of palm oil on storage
Description: as §2, §3

[12] = Effect of particle size on antioxidant activity (Rancimat induction time) in palm oil; settings: 200 ppm in palm oil; Rancimat 120° C.
Description: as §6, §7

[13] = ambient temperature, day 0, 200 ppm
[14] = ambient temperature, day 15, 200 ppm
[15] = ambient temperature, day 30, 200 ppm
[16] = ambient temperature, day 45, 200 ppm
[17] = ambient temperature, day 60, 200 ppm
[18] = ambient temperature, day 75, 200 ppm
[19] = ambient temperature, day 90, 200 ppm
[20] = ambient temperature, day 105, 200 ppm
[21] = ambient temperature, day 120, 200 ppm
[22] = ambient temperature, day 135, 200 ppm
[23] = ambient temperature, day 150, 200 ppm
[24] = ambient temperature, day 165, 200 ppm
[25] = ambient temperature, day 180, 200 ppm

Compound CC(C)(C)c1cc(O)ccc1O [Sample A, tertiary butyl hydroquinone] has a Peroxide value ([1]; 50° C., day 0, 200 ppm) of 0.482, a Peroxide value ([1]; 50° C., day 7, 200 ppm) of 1.309 and a Peroxide value ([1]; 50° C., day 15, 200 ppm) of 1.836. The Peroxide value ([1]; 50° C., day 22, 200 ppm) was 1.887, the Peroxide value ([1]; 50° C., day 30, 200 ppm) was 2.005 and the Peroxide value ([1]; 50° C., day 37, 200 ppm) was 3.074. It also gave a Peroxide value ([1]; 50° C., day 45, 200 ppm) of 3.686, a Peroxide value ([1]; 50° C., day 52, 200 ppm) of 4.102 and a Peroxide value ([1]; 50° C., day 60, 200 ppm) of 4.491. The Peroxide value ([1]; 50° C., day 67, 200 ppm) was 4.75, the Peroxide value ([1]; 50° C., day 75, 200 ppm) was 4.893 and the Peroxide value ([1]; 50° C., day 82, 200 ppm) was 5.209. It also gave a Peroxide value ([1]; 50° C., day 90, 200 ppm) of 5.395, a Peroxide value [1, 13] of 0.465 and a Peroxide value [1, 14] of 0.762. It also gave a Peroxide value [1, 15] of 1.417, a Peroxide value [1, 16] of 1.558 and a Peroxide value [1, 17] of 1.771. For the same compound, the Peroxide value [1, 18] was 1.855, the Peroxide value [1, 19] was 1.814 and the Peroxide value [1, 20] was 1.88. It also gave a Peroxide value [1, 21] of 1.91, a Peroxide value [1, 22] of 1.951 and a Peroxide value [1, 23] of 2.222. The Peroxide value [1, 24] was 2.31, the Peroxide value [1, 25] was 2.403 and the “Increase in OSI (%)” value ([2]; 50 ppm alone) was 5.12%. The “Induction Time (H) at 120 C.” value ([2]; 50 ppm alone) was 9.57 H, the OSI ([2]; 50 ppm alone) was 1.054 and the “increase in induction time as compared to control (X-C)” value (“increase in induction time” below) ([2]; 50 ppm alone) was 0.49. For the same compound, the “Increase in OSI (%)” value ([2]; 100 ppm alone) was 17.53%, the “Induction Time (H) at 120 C.” value ([2]; 100 ppm alone) was 11.01 H and the OSI ([2]; 100 ppm alone) was 1.21. For the same compound, the “increase in induction time” value ([2]; 100 ppm alone) was 1.93, the “Increase in OSI (%)” value ([2]; 200 ppm alone) was 36.24% and the “Induction Time (H) at 120 C.” value ([2]; 200 ppm alone) was 14.24 H. For the same compound, the OSI ([2]; 200 ppm alone) was 1.57, the “increase in induction time” value ([2]; 200 ppm alone) was 5.16 and the “Shelf Life (days) at 30° C.” value [3] was 171.0 days. For the same compound, the “frying cycle after which threshold limit for total polar compounds is crossed” value ([4]; palm oil) was 40 cycle, the “Number of batches fried” value ([4]; palm oil (PO), potato chips, 200 ppm) was 40 batches and the “Shelf Life (No. Of Days)” value (Shelf life of canola oil) was 181 days. For the same compound, the “Shelf Life (days) at 30° C.” value [5] was 617.0 days, the “Induction Period (h) of SFO 100° C.” value [6] was 26.82 h and the Totox value ([7]; day 0, 200 ppm) was 3.497. It also gave a Totox value ([7]; day 15, 200 ppm) of 4.585, a Totox value ([7]; day 30, 200 ppm) of 5.879 and a Totox value ([7]; day 45, 200 ppm) of 6.228. It also gave a Totox value ([7]; day 60, 200 ppm) of 6.157, a Totox value ([7]; day 75, 200 ppm) of 6.441 and a Totox value ([7]; day 90, 200 ppm) of 6.400. The Totox value ([7]; day 105, 200 ppm) was 6.976, the Totox value ([7]; day 120, 200 ppm) was 7.122 and the Totox value ([7]; day 135, 200 ppm) was 7.339. It also gave a Totox value ([7]; day 150, 200 ppm) of 7.916, a Totox value ([7]; day 165, 200 ppm) of 8.258 and a Totox value ([7]; day 180, 200 ppm) of 8.614. The “Induction Time” value ([8]; 80° C.) was 109.76 h, the “Oxidative Stability Index (OSI)” value ([8]; 80° C.) was 3.01 and the “Induction Time” value ([8]; 100° C.) was 26.82 h. For the same compound, the “Oxidative Stability Index (OSI)” value ([8]; 100° C.) was 2.88, the “Induction Time” value ([8]; 120° C.) was 6.13 h and the “Oxidative Stability Index (OSI)” value ([8]; 120° C.) was 2.61. The “Total Polar compounds of sunflower oil” value ([9]; 200 ppm, frying cycle 0) was 3.746, the “Total Polar compounds of sunflower oil” value ([9]; 200 ppm, frying cycle 8) was 6.375 and the “Total Polar compounds of sunflower oil” value ([9]; 200 ppm, frying cycle 16) was 13.632. For the same compound, the “Total Polar compounds of sunflower oil” value ([9]; 200 ppm, frying cycle 24) was 18.505, the “Total Polar compounds of sunflower oil” value ([9]; 200 ppm, frying cycle 32) was 23.123 and the “Total Polar compounds of sunflower oil” value ([9]; 200 ppm, frying cycle 40) was 28.648. The “frying cycle after which threshold limit for total polar compounds is crossed” value ([9]; sunflower oil) was 40 cycle, the “Number of batches fried” value ([9]; sunflower oil (SFO), potato chips, 200 ppm) was 40 batches and the “Induction Time” value ([10]; 100° C.) was 95.76 h. The “Oxidative Stability Index (OSI)” value ([10]; 100° C.) was 2.30, the “Induction Time” value ([10]; 120° C.) was 20.93 h and the “Oxidative Stability Index (OSI)” value ([10]; 120° C.) was 2.17. The “Induction Time” value ([10]; 140° C.) was 5.26 h, the “Oxidative Stability Index (OSI)” value ([10]; 140° C.) was 2.15 and the Para-anisidine value ([11]; 50° C., day 0, 200 ppm) was 2.69. It also gave a Para-anisidine value ([11]; 50° C., day 7, 200 ppm) of 3.062, a Para-anisidine value ([11]; 50° C., day 15, 200 ppm) of 3.296 and a Para-anisidine value ([11]; 50° C., day 22, 200 ppm) of 3.395. It also gave a Para-anisidine value ([11]; 50° C., day 30, 200 ppm) of 3.74, a Para-anisidine value ([11]; 50° C., day 37, 200 ppm) of 4.052 and a Para-anisidine value ([11]; 50° C., day 45, 200 ppm) of 4.209. The Para-anisidine value ([11]; 50° C., day 52, 200 ppm) was 4.685, the Para-anisidine value ([11]; 50° C., day 60, 200 ppm) was 5.091 and the Para-anisidine value ([11]; 50° C., day 67, 200 ppm) was 5.208. The Para-anisidine value ([11]; 50° C., day 75, 200 ppm) was 5.514, the Para-anisidine value ([11]; 50° C., day 82, 200 ppm) was 5.601 and the Para-anisidine value ([11]; 50° C., day 90, 200 ppm) was 5.827. It also gave a Para-anisidine value [11, 13] of 2.566, a Para-anisidine value [11, 14] of 3.062 and a Para-anisidine value [11, 15] of 3.045. For the same compound, the Para-anisidine value [11, 16] was 3.113, the Para-anisidine value [11, 17] was 2.615 and the Para-anisidine value [11, 18] was 2.731. The Para-anisidine value [11, 19] was 2.772, the Para-anisidine value [11, 20] was 3.217 and the Para-anisidine value [11, 21] was 3.303. It also gave a Para-anisidine value [11, 22] of 3.438, a Para-anisidine value [11, 23] of 3.473 and a Para-anisidine value [11, 24] of 3.639. For the same compound, the Para-anisidine value [11, 25] was 3.808 and the “Induction Period (h) of PO at 120° C.” value [12] was 20.93 h.
